Measured values as given in US20260297042A1, “BIARYLAMIDE DERIVATIVES AND THEIR USE AS PKMYT1 INHIBITORS” (CANCER RESEARCH TECHNOLOGY LIMITED, priority 2023, published 2026).

Legend:
WEE1 = target: T1, WEE1 (Homo sapiens, UniProt P30291); experiment: Selectivity versus WEE1 assay (ADP-Glo enzymatic assay); assay type: biochemical; conditions: banded; for IC50: ADP-Glo, 15 nM WEE1, 60 minutes at 26° C.; for PKMYT1 vs. WEE1 selectivity: fold difference in selectivity for PKMYT1 over WEE1, ">N" = at least in this band but could be higher
T1 construct: purchased Thermo Fisher PR7373A
T1 sequence (P30291 whole entry): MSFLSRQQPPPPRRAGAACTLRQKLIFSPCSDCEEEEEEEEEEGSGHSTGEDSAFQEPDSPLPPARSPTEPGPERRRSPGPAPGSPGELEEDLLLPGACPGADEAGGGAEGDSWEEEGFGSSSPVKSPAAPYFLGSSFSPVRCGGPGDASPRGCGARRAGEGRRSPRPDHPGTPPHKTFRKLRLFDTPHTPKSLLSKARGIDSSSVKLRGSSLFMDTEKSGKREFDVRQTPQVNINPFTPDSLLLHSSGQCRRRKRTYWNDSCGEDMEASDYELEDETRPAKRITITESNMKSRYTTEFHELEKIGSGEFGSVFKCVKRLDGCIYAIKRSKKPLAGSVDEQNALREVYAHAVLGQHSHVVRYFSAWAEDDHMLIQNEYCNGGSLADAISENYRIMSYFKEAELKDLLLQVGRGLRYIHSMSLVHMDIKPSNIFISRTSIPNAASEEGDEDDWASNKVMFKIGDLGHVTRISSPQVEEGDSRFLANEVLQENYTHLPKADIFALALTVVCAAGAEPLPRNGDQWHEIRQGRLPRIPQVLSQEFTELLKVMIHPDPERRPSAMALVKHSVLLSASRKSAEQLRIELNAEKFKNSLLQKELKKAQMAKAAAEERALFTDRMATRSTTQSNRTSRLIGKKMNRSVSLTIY
Procedure: Selectivity versus WEE1 assay: Selectivity was established using the same format as outlined for PKMYT1. After dosing of compounds via the Echo acoustic dispenser—as described above—WEE1 (Thermo Fisher PR7373A) was added to each well at a final concentration of 15 nM in a buffer of 50 mM HEPES (pH 7.5), 10 mM MgCl2, 1 mM EGTA, 0.01% Brij-35, 1% DMSO. 30 µM ATP was added to start the reaction with the final assay volume being 4 μl. The plate was then incubated for 60 minutes at 26° C. before the addition of 4 μl of ADP-Glo Reagent. Following a further 60 minute incubation the assay signal was developed by the addition of 8 μl ADP-Glo Detection Reagent. After 60 minutes the luminescence signal was read on a PHERAStar FS microplate reader (BMG Labtech).
(§1) Data analysis: Data was captured and analysed within the Dotmatics Studies software module where dose response curves were generated and IC50 values determined. Acceptance and verification of data followed strict in-house business rules which are summarised as follows. […] Technical and biological replicates of each compound are routinely tested and replicate IC50 values must fall within 3-fold of each other with dose response curves showing ‘goodness of fit’ r2 values >0.9. Failure to meet any of these defined criteria result in rejection of data.

Human PKMYT1 = target: T2, Human PKMYT1 (Homo sapiens, UniProt Q99640); experiment: PKMYT1 biochemical ADP-Glo enzymatic assay
T2 construct: Human PKMYT1 75-362 was cloned as a TEV cleavable 6xHis fusion; 6xHis (TEV cleavable) (cleaved yes); made in house; host or cells: bacterial cells
T2 sequence (Q99640 75-362): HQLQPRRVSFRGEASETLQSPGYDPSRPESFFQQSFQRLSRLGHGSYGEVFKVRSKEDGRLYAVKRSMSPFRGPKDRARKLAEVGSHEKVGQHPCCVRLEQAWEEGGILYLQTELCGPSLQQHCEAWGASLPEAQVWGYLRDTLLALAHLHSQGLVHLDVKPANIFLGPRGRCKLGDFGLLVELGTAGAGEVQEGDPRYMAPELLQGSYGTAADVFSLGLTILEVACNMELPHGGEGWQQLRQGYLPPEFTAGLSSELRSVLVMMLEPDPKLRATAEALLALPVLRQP
Procedure: Human PKMYT1 75-362 was cloned as a TEV cleavable 6xHis fusion in bacterial cells. After purification on a Ni++HiTrap Chelating HP column, the His-tag was cleaved using TEV protease. Cleaved PKMYT1 was further purified on a Superdex 200 16/600 sizing column. The fractions containing PKMYT1 were pooled and concentrated using an ultrafiltration centrifugal protein concentrator. The purified protein was aliquoted, flash frozen in liquid nitrogen, and stored at −80° C.
PKMYT1 biochemical assay: Inhibition of PKMYT1 was assessed using the ADP-Glo™ Max Detection System from Promega. This assay detects the production of ADP from ATP by PKMYT1 via a two-step process ultimately involving the conversion of ADP to ATP with the latter converted to light in a coupled reaction with luciferase/luciferin. Inhibition of PKMYT1 by small molecule inhibitors results in a retardation of luminescence above background. The intrinsic ATPase activity of PKMYT1 was assessed according to the following protocol. Compounds were dosed into Corning white low volume 384 well assay plates using an Echo acoustic dispenser to generate 10-point curves spanning a 3-fold dilution series. DMSO (no inhibitor) control wells were prepared to benchmark the maximum and minimum signals in the presence and absence of PKMYT1, respectively. The PKMYT1 kinase domain was purified in-house, as described above, and added to the wells at a final concentration of 15 nM in a buffer of 50 mM HEPES (pH 7.5), 10 mM MgCl2, 1 mM EGTA, 0.01% Brij-35, 1% DMSO. 500 µM ATP was added to start the reaction with the final assay volume being 4 μl. The plate was then incubated for 60 minutes at 26° C. before the addition of 4 μl of ADP-Glo Reagent to stop the reaction and deplete the unconsumed ATP. Following a further 60 minute incubation the assay signal was developed by the addition of 8 μl ADP-Glo Max Detection Reagent. After 60 minutes the luminescence signal was read on a PHERAStar FS microplate reader (BMG Labtech).
as §1

[1] = ADP-Glo, 15 nM PKMYT1 kinase domain, 500 µM ATP, 60 minutes at 26° C., banded

| SMILES | IC50 (WEE1) | PKMYT1 vs. WEE1 selectivity (WEE1) | IC50 (Human PKMYT1; [1]) | IC50 (Human PKMYT1; PKMYT1 biochemical ADP-Glo enzymatic assay, Comparison Data 1) | improvement in PKMYT1 IC50 as compared to REF-001 (Human PKMYT1; vs REF-001) | improvement in PKMYT1 IC50 as compared to REF-002 (Human PKMYT1; vs REF-002) | IC50 (Human PKMYT1; PKMYT1 biochemical ADP-Glo enzymatic assay, Comparison Data 2) | improvement in PKMYT1 IC50 as compared to REF-003 (Human PKMYT1; vs REF-003) | improvement in PKMYT1 IC50 as compared to REF-004 (Human PKMYT1; vs REF-004) |
| --- | --- | --- | --- | --- | --- | --- | --- | --- | --- |
| Cc1ccc(O)c(C)c1NC(=O)c1cnc(N)s1 [BAA-001, 2-Amino-N-(3-hydroxy-2,6-dimethyl-phenyl)thiazole-5-carboxamide] | > 11000 nM | X (100-<1000 fold) | 50 to 1000 nM | 327 nM | 163 fold | 82 fold |  |  |  |
| Cc1ccc(O)c(C)c1NC(=O)c1cnc(Nc2ccn(CCCO)n2)s1 [BAA-002, N-(3-Hydroxy-2,6-dimethyl-phenyl)-2-[[1-(3-hydroxypropyl)pyrazol-3-yl]amino]thiazole-5-carboxamide] | 1000 to 11000 nM | W (10-<100 fold) | < 50 nM |  |  |  |  |  |  |
| Cc1ccc(O)c(C)c1NC(=O)c1cnc(Nc2cc[nH]n2)s1 [BAA-003, N-(3-hydroxy-2,6-dimethyl-phenyl)-2-(1H-pyrazol-3-ylamino)thiazole-5-carboxamide] | > 11000 nM | W (10-<100 fold) | 1000 to 11000 nM |  |  |  |  |  |  |
| Cc1ccc(O)c(C)c1NC(=O)c1cnc(Nc2ccn(C)n2)s1 [BAA-004, N-(3-hydroxy-2,6-dimethyl-phenyl)-2-[(1-methylpyrazol-3-yl)amino]thiazole-5-carboxamide] | 1000 to 11000 nM | X (100-<1000 fold) | 50 to 1000 nM |  |  |  | 55 nM | 987 fold | > 1800 fold |
| CCn1ccc(Nc2ncc(C(=O)Nc3c(C)ccc(O)c3C)s2)n1 [BAA-005, 2-[(1-ethylpyrazol-3-yl)amino]-N-(3-hydroxy-2,6-dimethyl-phenyl)thiazole-5-carboxamide] | 1000 to 11000 nM | X (100-<1000 fold) | < 50 nM |  |  |  |  |  |  |
| CCCn1ccc(Nc2ncc(C(=O)Nc3c(C)ccc(O)c3C)s2)n1 [BAA-006, N-(3-hydroxy-2,6-dimethyl-phenyl)-2-[(1-propylpyrazol-3-yl)amino]thiazole-5-carboxamide] | > 11000 nM | X (100-<1000 fold) | 50 to 1000 nM |  |  |  |  |  |  |
| Cc1ccc(O)c(C)c1NC(=O)c1cnc(Nc2ccn(C3COC3)n2)s1 [BAA-007, N-(3-hydroxy-2,6-dimethyl-phenyl)-2-[[1-(oxetan-3-yl)pyrazol-3-yl]amino]thiazole-5-carboxamide] | 50 to 1000 nM | W (10-<100 fold) | < 50 nM |  |  |  |  |  |  |
| Cc1ccc(O)c(C)c1NC(=O)c1cnc(Nc2ccn(C(C)C)n2)s1 [BAA-008, N-(3-hydroxy-2,6-dimethyl-phenyl)-2-[(1-isopropylpyrazol-3-yl)amino]thiazole-5-carboxamide] | 1000 to 11000 nM | X (100-<1000 fold) | 50 to 1000 nM |  |  |  |  |  |  |
| Cc1ccc(O)c(C)c1NC(=O)c1cnc(Nc2ccon2)s1 [BAA-009, N-(3-hydroxy-2,6-dimethyl-phenyl)-2-(isoxazol-3-ylamino)thiazole-5-carboxamide] | > 11000 nM | X (100-<1000 fold) | < 50 nM |  |  |  |  |  |  |
| Cc1ccc(O)c(C)c1NC(=O)c1cnc(Nc2ccnn2C)s1 [BAA-010, N-(3-hydroxy-2,6-dimethyl-phenyl)-2-[(2-methylpyrazol-3-yl)amino]thiazole-5-carboxamide] | > 11000 nM | Y (1000-5000 fold) | 50 to 1000 nM |  |  |  |  |  |  |
| Cc1ccc(O)c(C)c1NC(=O)c1cnc(Nc2ccn(CCO)n2)s1 [BAA-011] | 1000 to 11000 nM | W (10-<100 fold) | < 50 nM |  |  |  |  |  |  |
| CCCCn1ccc(Nc2ncc(C(=O)Nc3c(C)ccc(O)c3C)s2)n1 [BAA-012, 2-[(1-butylpyrazol-3-yl)amino]-N-(3-hydroxy-2,6-dimethyl-phenyl)thiazole-5-carboxamide] | 1000 to 11000 nM | W (10-<100 fold) | 50 to 1000 nM |  |  |  |  |  |  |
| Cc1ccc(O)c(C)c1NC(=O)c1cnc(Nc2ccn(C3CCCC3)n2)s1 [BAA-014, 2-[(1-cyclopentylpyrazol-3-yl)amino]-N-(3-hydroxy-2,6-dimethyl-phenyl)thiazole-5-carboxamide] | 1000 to 11000 nM | W (10-<100 fold) | < 50 nM |  |  |  |  |  |  |
| Cc1ccc(O)c(C)c1NC(=O)c1cnc(Nc2ccn(C3CCCCC3)n2)s1 [BAA-015, 2-[(1-cyclohexylpyrazol-3-yl)amino]-N-(3-hydroxy-2,6-dimethyl-phenyl)thiazole-5-carboxamide] | 1000 to 11000 nM | X (100-<1000 fold) | < 50 nM |  |  |  |  |  |  |
| Cc1ccc(O)c(C)c1NC(=O)c1cnc(Nc2nc(C(F)(F)F)cs2)s1 [BAA-017] | > 11000 nM | >X (100-<1000 fold) | 50 to 1000 nM |  |  |  |  |  |  |
| Cc1ccc(O)c(C)c1NC(=O)c1cnc(Nc2nc(CO)cs2)s1 [BAA-018] | > 11000 nM | X (100-<1000 fold) | < 50 nM |  |  |  |  |  |  |
| Cc1ccc(O)c(C)c1NC(=O)c1cnc(Nc2ccn(CC(F)(F)F)n2)s1 [BAA-019, N-(3-hydroxy-2,6-dimethyl-phenyl)-2-[[1-(2,2,2-trifluoroethyl)pyrazol-3-yl]amino]thiazole-5-carboxamide] | > 11000 nM | X (100-<1000 fold) | 50 to 1000 nM |  |  |  |  |  |  |
| Cc1ccc(O)c(C)c1NC(=O)c1cnc(Nc2sccc2C(N)=O)s1 [BAA-021, 2-[(3-carbamoyl-2-thienyl)amino]-N-(3-hydroxy-2,6-dimethyl-phenyl)thiazole-5-carboxamide] | > 11000 nM | >X (100-<1000 fold) | 50 to 1000 nM |  |  |  |  |  |  |
| CCOC(=O)CCCn1ccc(Nc2ncc(C(=O)Nc3c(C)ccc(O)c3C)s2)n1 [BAA-022] | 1000 to 11000 nM | W (10-<100 fold) | 50 to 1000 nM |  |  |  |  |  |  |
| CCOC(=O)Cn1ccc(Nc2ncc(C(=O)Nc3c(C)ccc(O)c3C)s2)n1 [BAA-023] | 1000 to 11000 nM | X (100-<1000 fold) | < 50 nM |  |  |  |  |  |  |
| CCOC(=O)c1cc(Nc2ncc(C(=O)Nc3c(C)ccc(O)c3C)s2)nn1C [BAA-024] | 1000 to 11000 nM | X (100-<1000 fold) | < 50 nM |  |  |  |  |  |  |
